Data on 4 compounds can be found in ChEMBL document CHEMBL1240386, “Pharmacokinetics of antituberculosis drugs in pulmonary tuberculosis patients with type 2 diabetes” (Antimicrob Agents Chemother, 2010).

Type in all cases: ADME, organism-based
Data set [1] can be described thus: Half life in tuberculosis patient at 10 mg/kg, po by HPLC analysis. Particulars: human, in vivo. On the set-up: dose 10 mg/kg, route oral.
Data set [2] in a line: AUC (0 to 24 hrs) in tuberculosis patient at 10 mg/kg, po by HPLC analysis. The arrangement: time < 24 hr, dose 10 mg/kg, route oral. The following applies: human, plasma.
The nature of data set [3]: Cmax in diabetic tuberculosis patient at 10 mg/kg, po and 10 mg/kg, iv by HPLC analysis. Particulars: human, in vivo.
The species entered for data set [4] is Homo sapiens. In words: Ratio of half life in diabetic tuberculosis patient to half life in tuberculosis patient. The following applies: in vivo.
Data set [5] can be described thus: Half life in diabetic tuberculosis patient at 10 mg/kg, po and 10 mg/kg, iv by HPLC analysis. Particulars: human, in vivo.
The species entered for data set [6] is Homo sapiens. Description: Ratio of AUC (0 to 24 hrs) for diabetic tuberculosis patient to AUC (0 to 24 hrs) for tuberculosis patient. Particulars: in vivo.
The species entered for data set [7] is Homo sapiens. Description: Ratio of Cmax in diabetic tuberculosis patient to Cmax in tuberculosis patient. The following applies: in vivo.
Data set [8] can be described thus: AUC (0 to 24 hrs) in diabetic tuberculosis patient at 10 mg/kg, po and 10 mg/kg, iv by HPLC analysis. The following applies: human, plasma.
A short description of data set [9]: Tmax in tuberculosis patient at 10 mg/kg, po by HPLC analysis. The arrangement: dose 10 mg/kg, route oral. Particulars: human, in vivo.
Data set [10] in a line: Cmax in tuberculosis patient at 10 mg/kg, po by HPLC analysis. On the set-up: dose 10 mg/kg, route oral. Particulars: human, in vivo.
The nature of data set [11]: Tmax in diabetic tuberculosis patient at 10 mg/kg, po and 10 mg/kg, iv by HPLC analysis. Particulars: human, in vivo.
Data set [12] can be described thus: Tmax in tuberculosis patient at 15 mg/kg, po by HPLC analysis. The arrangement: dose 15 mg/kg, route oral. The following applies: human, in vivo.
For data set [13], the system named is Homo sapiens. Description: Ratio of sAUC (0 to 24 hrs) for diabetic tuberculosis patient to sAUC (0 to 24 hrs) for tuberculosis patient at 15 mg/kg, po. On the set-up: dose 15 mg/kg, route oral. Particulars: in vivo.
A short description of data set [14]: Cmax in diabetic tuberculosis patient at 15 mg/kg, po by HPLC analysis. The arrangement: dose 15 mg/kg, route oral. Particulars: human, in vivo.
The nature of data set [15]: AUC (0 to 24 hrs) in diabetic tuberculosis patient at 15 mg/kg, po by HPLC analysis. On the set-up: time < 24 hr, dose 15 mg/kg, route oral. The following applies: human, plasma.
The test system of data set [16] is Homo sapiens. In words: Ratio of Cmax in diabetic tuberculosis patient to Cmax in tuberculosis patient at 15 mg/kg, po. Particulars: in vivo. On the set-up: dose 15 mg/kg, route oral.
Data set [17] in a line: Cmax in tuberculosis patient at 15 mg/kg, po by HPLC analysis. The arrangement: dose 15 mg/kg, route oral. Particulars: human, in vivo.
Data set [18] in a line: AUC (0 to 24 hrs) in tuberculosis patient at 15 mg/kg, po by HPLC analysis. The arrangement: time < 24 hr, dose 15 mg/kg, route oral. The following applies: human, plasma.
A short description of data set [19]: Tmax in diabetic tuberculosis patient at 15 mg/kg, po by HPLC analysis. On the set-up: dose 15 mg/kg, route oral. The following applies: human, in vivo.
A short description of data set [20]: Cmax in diabetic tuberculosis patient at 30 mg/kg, po by HPLC analysis. On the set-up: dose 30 mg/kg, route oral. Particulars: human, in vivo.
Data set [21] has as its system Homo sapiens. In words: Ratio of AUC (0 to 24 hrs) for diabetic tuberculosis patient to AUC (0 to 24 hrs) for tuberculosis patient at 30 mg/kg, po. The arrangement: dose 30 mg/kg, route oral. Particulars: in vivo.
Data set [22] in a line: AUC (0 to 24 hrs) in tuberculosis patient at 30 mg/kg, po by HPLC analysis. The following applies: human, plasma. On the set-up: time < 24 hr, dose 30 mg/kg, route oral.
Data set [23] has as its system Homo sapiens. Description: Ratio of Cmax in diabetic tuberculosis patient to Cmax in tuberculosis patient at 30 mg/kg, po. On the set-up: dose 30 mg/kg, route oral. The following applies: in vivo.
Data set [24] can be described thus: Tmax in tuberculosis patient at 30 mg/kg, po by HPLC analysis. The following applies: human, in vivo. The arrangement: dose 30 mg/kg, route oral.
Data set [25] in a line: AUC (0 to 24 hrs) in diabetic tuberculosis patient at 30 mg/kg, po by HPLC analysis. On the set-up: time < 24 hr, dose 30 mg/kg, route oral. Particulars: human, plasma.
A short description of data set [26]: Cmax in tuberculosis patient at 30 mg/kg, po by HPLC analysis. The arrangement: dose 30 mg/kg, route oral. Particulars: human, in vivo.
The nature of data set [27]: Tmax in diabetic tuberculosis patient at 30 mg/kg, po by HPLC analysis. The arrangement: dose 30 mg/kg, route oral. Particulars: human, in vivo.
Data set [28] is described as follows: Oral bioavailability in tuberculosis patient at 10 mg/kg by HPLC analysis. The following applies: human, in vivo.
A short description of data set [29]: Apparent volume of distribution in diabetic tuberculosis patient at 10 mg/kg, po and 10 mg/kg, iv by HPLC analysis. Particulars: human, in vivo, read-out: Vc/F.
A short description of data set [30]: Apparent oral clearance in tuberculosis patient at 10 mg/kg, po by HPLC analysis. On the set-up: dose 10 mg/kg, route oral. Particulars: human, in vivo.
Data set [31] can be described thus: Apparent volume of distribution in tuberculosis patient at 10 mg/kg, po by HPLC analysis. On the set-up: dose 10 mg/kg, route oral. Particulars: human, in vivo, read-out: Vc/F.
Data set [32] in a line: Bioavailability in diabetic tuberculosis patient at 10 mg/kg, po and 10 mg/kg, iv by HPLC analysis. Particulars: human, in vivo.

SMILES strings stand for the structures.

Turning to `CO[C@H]1/C=C/O[C@@]2(C)Oc3c(C)c(O)c4c(O)c(c(/C=N/N5CCN(C)CC5)c(O)c4c3C2=O)NC(=O)/C(C)=C\C=C\[C@H](C)[C@H](O)[C@@H](C)[C@@H](O)[C@@H](C)[C@H](O)[C@@H]1C`, the values for the half-life in data set [1] and in [5] were 2.4 h and 2.3 h, respectively. Further, the AUC(0-t) (usually the area under the concentration-time curve up to a stated or last time point) at 24 h in [2] worked out at 8300 ng·h/mL. Further, the Cmax (as a rule, the highest concentration seen after dosing) in data set [3] came out at 1100 ng/mL; in data set [10], 1400 ng/mL. The values for the Ratio in the data set listed under Homo sapiens [4], in the data set filed under Homo sapiens [6] and in the data set listed under Homo sapiens [7] were 0.94, 0.69 and 0.78, respectively. The compound further returned an AUC(0-t) in data set [8] of 5700 ng·h/mL. Further, the Tmax (commonly the time from dosing to the highest level) in [9] turned out to be 4 h; in [11], 3 h.
On to `CC[C@@H](CO)NCCN[C@@H](CC)CO` [ETHAMBUTOL], for which the Tmax in data set [12] and in [19] was 3 h in each case. Further, the figures for the Ratio in the data set on Homo sapiens [13] and with Homo sapiens [16] were 1.02 and 1.12, respectively. For the same compound, the values for the highest concentration (Cmax) in data set [14] and in data set [17] were 2200 ng/mL and 1950 ng/mL, respectively. For the same compound, the AUC(0-t) at 24 h in data set [15] turned out to be 13800 ng·h/mL; in data set [18], 13500 ng·h/mL.
`NC(=O)c1cnccn1` [PYRAZINAMIDE]: the Cmax in data set [20] came to 45500 ng/mL; in data set [26], 47000 ng/mL. Besides, the Ratio in the data set with Homo sapiens [21] is reported as 0.88; in the data set on Homo sapiens [23], 0.96. Besides, the AUC(0-t) at 24 h came out at 468000 ng·h/mL in [22] and 409000 ng·h/mL in data set [25]. Moreover, the Tmax in data set [24] is 1.5 h; in data set [27], 1 h.
In the case of `CO[C@H]1/C=C/O[C@@]2(C)Oc3c(C)c(O)c4c(O)c(c(/C=N/N5CCN(C)CC5)c(O)c4c3C2=O)NC(=O)/C(C)=C\C=C\[C@H](C)[C@H](O)[C@@H](C)[C@@H](O)[C@@H](C)[C@H](OC(C)=O)[C@@H]1C` [RIFAMPIN], the figures for the bioavailability in [28] and in [32] were 74% and 69%, respectively. In data set [2], this compound came in with an AUC(0-t) at 24 h of 50600 ng·h/mL. The results for the Vd/F in [29] and in data set [31] were 27.4 L and 27.6 L, respectively. The CL/F – broadly, the apparent clearance, not corrected for the fraction that reaches the circulation – in data set [30] is 148 mL/min. Further, the AUC(0-t) in data set [8] was found to be 49000 ng·h/mL. For the same compound, the values for the time to peak (Tmax) in data set [9] and in data set [11] were 2.5 h and 2 h, respectively. Also, the peak level in [10] (Cmax) was 9600 ng/mL.
